According to PMC6273913, “New α-Methylene-γ-Butyrolactone Derivatives as Potential Fungicidal Agents: Design, Synthesis and Antifungal Activities” (Molecules, 2016):
Like-named read-outs stand apart in the source and are kept apart here.

Tests used:
[1] = tested on: B. cinerea; experiment: Spore germination assay, fungicidal activity against B. cinerea; format: cell-based, Botrytis cinerea; conditions: in vitro, n = 3
Procedure: (§1) The fungal pathogens C. lagenarium and B. cinerea was provided by the Agricultural Culture Collection of China (Yangling, Shaanxi, China). C. lagenarium was cultured for 2 weeks at 25 ± 1 °C on potato dextrose agar (PDA) while B. cinerea was cultured at 20 °C on the same medium after being retrieved from the storage tube. Plates were flooded with sterile distilled water, and then conidia were scraped with a glass rod. Mycelial debris was removed by filtration. The spores were harvested and suspended in sterile distilled water containing 0.1% (v/v) Tween 20. The concentration of the spore suspension was adjusted to 1.0 × 10^6 spores/mL with sterilized distilled water following.
(§2) The tested samples (10.0 mg) dissolved in acetone (0.1 mL) were diluted with sterile distilled water to prepare 10.0 mL stock solution, which was further diluted to prepare test solutions in which the final concentration of acetone was <1% (v/v). A series of concentrations of tested samples and one control (1% acetone with sterile distilled water) were separately tested for spore germination of C. lagenarium or B. cinerea. The samples were inoculated with spore suspension of C. lagenarium or B. cinerea containing 1.0 × 10^6 spores/mL. Aliquots of 10 μL of prepared spore suspension were placed on separate glass slides in triplicate. Slides containing the spores were incubated in a moisture chamber at 25 °C for 6~8 h. Each slide was then observed under the microscope for spore germination. Spores were considered to have germinated if the length of the germ tube was at least half the length of the spore. Afterward, spore germination was stopped by applying a drop of lactophenol-cotton blue to the inoculation sites on plates. The numbers of generated spores were counted under a microscope (Olympus BX61, Tokyo, Japan), and the percentage of germinated spores was calculated. Chlorothalonil was used as the positive control.

[2] = tested on: C. lagenarium; experiment: Spore germination assay, fungicidal activity against C. lagenarium; format: cell-based, Colletotrichum lagenarium
Procedure: as §1, §2

[3] = Colletotrichum orbiculare, Table 1, from IC50 in μM, read-out: pIC50, C. lagenarium (converted)
[4] = Colletotrichum orbiculare, Table 2, fungicidal activity against C. lagenarium used for QSAR, read-out: pIC50 (converted)
[5] = Colletotrichum orbiculare, Table 4, experimental, C. lagenarium, read-out: Exp. pIC50 (converted)
[6] = Colletotrichum orbiculare, in vitro, spore germination, n = 3, read-out: IC50, C. lagenarium

| Compound | IC50 ([1]; Botrytis cinerea) | IC50 [2, 3] | IC50 [2, 4] | IC50 [2, 5] | IC50 [2, 6] | melting point | IC50 [1] | pIC50, C. lagenarium ([2]; Table 1, from IC50 in μM) | pIC50 ([2]; Table 2, fungicidal activity against C. lagenarium used for QSAR) | Exp. pIC50 ([2]; Table 4, experimental, C. lagenarium) | IC50 ([2]; in vitro, spore germination, n = 3, read-out: IC50, C. lagenarium) |
| --- | --- | --- | --- | --- | --- | --- | --- | --- | --- | --- | --- |
| C=C1CC(c2ccccc2OCCCC)OC1=O (stereo not shown) [Compound 5o, 4-(2-Butoxyphenyl)-2-methylenebutyrolactone] | 457 µM | 414 µM | 414 µM | 414 µM | 414 µM |  |  |  |  |  |  |
| N#Cc1c(Cl)c(Cl)c(Cl)c(C#N)c1Cl [Chlorothalonil, reference compound] | 8.31 µM | 4.21 µM |  |  | 4.21 µM |  |  |  |  |  |  |
| C=C1CC(c2cccc(OC(=O)c3ccc(Cl)cc3)c2)OC1=O (stereo not shown) [Compound 6b, 4-[3-(4-Chlorobenzoyloxy)phenyl]-2-methylenebutyrolactone] | 29.1 µM | 9.25 µM | 9.25 µM | 9.25 µM | 9.24 µM | 209.8 to 210.5 °C |  |  |  |  |  |
| C=C1CC(c2ccc(OC(=O)c3ccc(Br)cc3)cc2)OC1=O (stereo not shown) [Compound 4f, 4-[4-(4-Bromobenzoyloxy)phenyl]-2-methylenebutyrolactone] | 23 µM | 14.4 µM | 14.4 µM | 14.4 µM | 14.4 µM | 175.1 to 175.6 °C |  |  |  |  |  |
| C=C1CC(c2ccccc2OC(=O)c2ccc(Br)cc2)OC1=O (stereo not shown) [Compound 5e, 4-[2-(4-Bromobenzoyloxy)phenyl]-2-methylenebutyrolactone] | 36.1 µM | 15.3 µM | 15.3 µM | 15.3 µM | 15.3 µM | 184.7 to 185.2 °C |  |  |  |  |  |
| C=C1CC(c2ccc(OC(=O)c3ccccc3OC)cc2)OC1=O (stereo not shown) [Compound 4m, 4-[4-(2-Methoxylbenzoyloxy)phenyl]-2-methylenebutyrolactone] | 243 µM | 239 µM | 239 µM | 239 µM | 239 µM | 179.8 to 180.4 °C |  |  |  |  |  |
| C=C1CC(c2ccccc2OC(=O)c2ccc(C)cc2)OC1=O (stereo not shown) [Compound 5j, 4-[2-(4-Methylbenzoyloxy)phenyl]-2-methylenebutyrolactone] | 259 µM | 207 µM | 207 µM | 207 µM | 208 µM | 181.2 to 181.6 °C |  |  |  |  |  |
| C=C1CC(c2ccccc2OC(=O)c2ccccc2OC)OC1=O (stereo not shown) [Compound 5k, 4-[2-(2-Methoxylbenzoyloxy)phenyl]-2-methylenebutyrolactone] | 307 µM | 292 µM | 292 µM | 292 µM | 292 µM | 177.8 to 178.6 °C |  |  |  |  |  |
| 4-[2-(Cinnamoyloxy)phenyl]-2-methylenebutyrolactone [Compound 5n] |  |  |  |  |  |  | 20.6 µM | −1.012 | −1.0120 | −1.0120 | 10.3 µM |
| C=C1CC(c2cccc(OC(=O)c3ccccc3OC)c2)OC1=O (stereo not shown) [Compound 6j, 4-[3-(2-Methoxylbenzoyloxy)phenyl]-2-methylenebutyrolactone] | 196 µM | 162 µM | 162 µM | 162 µM | 162 µM | 172.3 to 172.8 °C |  |  |  |  |  |
| C=C1CC(c2ccccc2OC(=O)c2ccccc2)OC1=O (stereo not shown) [Compound 5g, 4-(2-Benzoyloxyphenyl)-2-methylenebutyrolactone] | 194 µM | 171 µM | 171 µM | 171 µM | 171 µM | 166.3 to 167 °C |  |  |  |  |  |
| C=C1CC(c2ccc(OC(=O)c3cccc(OC)c3)cc2)OC1=O (stereo not shown) [Compound 4n, 4-[4-(3-Methoxylbenzoyloxy)phenyl]-2-methylenebutyrolactone] | 224 µM | 212 µM | 212 µM | 212 µM | 212 µM | 185.7 to 186.2 °C |  |  |  |  |  |
| C=C1CC(c2ccccc2O)OC1=O (stereo not shown) [Compound 5, 4-(2-Hydroxyphenyl)-2-methylenebutyrolactone] | 280 µM | 239 µM |  |  | 239 µM |  |  |  |  |  |  |
| C=C1CC(c2ccc(OC(=O)c3ccc(C)cc3)cc2)OC1=O (stereo not shown) [Compound 4l, 4-[4-(4-Methylbenzoyloxy)phenyl]-2-methylenebutyrolactone] | 209 µM | 189 µM | 189 µM | 189 µM | 189 µM | 184.5 to 185.1 °C |  |  |  |  |  |
| C=C1CC(c2cccc(OC(=O)c3ccc(Br)cc3)c2)OC1=O (stereo not shown) [Compound 6e, 4-[3-(4-Bromobenzoyloxy)phenyl]-2-methylenebutyrolactone] | 27.2 µM | 9.71 µM | 9.71 µM | 9.71 µM | 9.7 µM | 168.6 to 169.4 °C |  |  |  |  |  |
| C=C1CC(c2ccc(OC(=O)c3ccc(C#N)cc3)cc2)OC1=O (stereo not shown) [Compound 4h] | 77 µM | 65.6 µM | 65.6 µM | 65.6 µM | 65.6 µM |  |  |  |  |  |  |
| C=C1CC(c2ccc(OC(=O)c3ccc(Cl)cc3)cc2)OC1=O (stereo not shown) [Compound 4c, 4-[4-(4-Chlorobenzoyloxy)phenyl]-2-methylenebutyrolactone] | 27.3 µM | 12.7 µM | 12.7 µM | 12.7 µM | 12.7 µM | 171.3 to 171.6 °C |  |  |  |  |  |
| C=C1CC(c2ccc(OC(=O)C=Cc3ccccc3)cc2)OC1=O (stereo not shown) [Compound 4r, 4-[4-(Cinnamoyloxy)phenyl]-2-methylenebutyrolactone] | 56.3 µM | 44.5 µM | 44.5 µM | 44.5 µM | 44.5 µM |  |  |  |  |  |  |
| C=C1CC(c2cccc(OC(=O)CC)c2)OC1=O (stereo not shown) [Compound 6m, 4-(3-Propionyloxyphenyl)-2-methylenebutyrolactone] | 203 µM | 173 µM | 173 µM | 173 µM | 173 µM |  |  |  |  |  |  |
| C=C1CC(c2ccc(OC(=O)c3ccccc3Br)cc2)OC1=O (stereo not shown) [Compound 4d, 4-[4-(2-Bromobenzoyloxy)phenyl]-2-methylenebutyrolactone] | 24.1 µM | 15.6 µM | 15.6 µM | 15.6 µM | 15.6 µM | 174.5 to 174.9 °C |  |  |  |  |  |
| C=C1CC(c2ccccc2OC(=O)c2ccc(C#N)cc2)OC1=O (stereo not shown) [Compound 5f] | 95 µM | 79.1 µM | 79.1 µM | 79.1 µM | 79.1 µM |  |  |  |  |  |  |
| C=C1CC(c2ccc(OC(=O)c3ccccc3C)cc2)OC1=O (stereo not shown) [Compound 4j, 4-[4-(2-Methylbenzoyloxy)phenyl]-2-methylenebutyrolactone] | 199 µM | 192 µM | 192 µM | 192 µM | 192 µM | 189.6 to 190.1 °C |  |  |  |  |  |
| C=C1CC(c2cccc(OC(=O)c3ccccc3Br)c2)OC1=O (stereo not shown) [Compound 6c, 4-[3-(2-Bromobenzoyloxy)phenyl]-2-methylenebutyrolactone] | 27.4 µM | 10.3 µM | 10.3 µM | 10.3 µM | 10.3 µM | 175.3 to 175.8 °C |  |  |  |  |  |
| C=C1CC(c2ccccc2OC(=O)c2ccccc2C)OC1=O (stereo not shown) [Compound 5h, 4-[2-(2-Methylbenzoyloxy)phenyl]-2-methylenebutyrolactone] | 229 µM | 216 µM | 216 µM | 216 µM | 216 µM | 172.8 to 173.4 °C |  |  |  |  |  |
| C=C1CC(c2cccc(OCCC)c2)OC1=O (stereo not shown) [Compound 6p, 4-(3-Propoxylphenyl)-2-methylenebutyrolactone] | 298 µM | 266 µM | 266 µM | 266 µM | 266 µM |  |  |  |  |  |  |
| C=C1CC(c2cccc(OC(=O)c3cccc(OC)c3)c2)OC1=O (stereo not shown) [Compound 6k, 4-[3-(3-Methoxybenzoyloxy)phenyl]-2-methylenebutyrolactone] | 161 µM | 136 µM | 136 µM | 136 µM | 136 µM | 183.7 to 184.2 °C |  |  |  |  |  |
| C=C1CC(c2ccc(OC(=O)c3ccccc3Cl)cc2)OC1=O (stereo not shown) [Compound 4a, 4-[4-(2-Chlorobenzoyloxy)phenyl]-2-methylenebutyrolactone] | 29.8 µM | 14 µM | 14 µM | 14 µM | 14 µM | 187.2 to 187.9 °C |  |  |  |  |  |
| C=C1CC(c2ccccc2OC(C)C)OC1=O (stereo not shown) [Compound 5q, 4-(2-Isopropoxylphenyl)-2-methylenebutyrolactone] | 446 µM | 429 µM | 429 µM | 429 µM | 429 µM |  |  |  |  |  |  |
